CCOC(=O)OC1=C(c2cc(C)ccc2C)C(=O)NC12CCC(OC)CC2 (stereo unspecified)
solubility (mole fraction)
Conditions | 278.15 K | 283.15 K | 288.15 K | 293.15 K | 298.15 K | 303.15 K | 308.15 K | 313.15 K | 318.15 K
in acetone | 0.012 | 0.0151 | 0.0183 | 0.0221 | 0.0267 | 0.0323 | 0.0392 | 0.0472 | 0.0571
in ethanol | 0.00319 | 0.00386 | 0.00504 | 0.00624 | 0.008 | 0.0103 | 0.0132 | 0.0169 | 0.0219
in isopropanol | 0.00177 | 0.00232 | 0.0031 | 0.00415 | 0.00543 | 0.00711 | 0.00939 | 0.0125 | 0.0165
in methanol | 0.00534 | 0.00669 | 0.00803 | 0.01 | 0.0127 | 0.0159 | 0.0202 | 0.0257 | 0.0321

From BigSolDB 2.1
